{"source": "patent US20060067942A1", "about": "“Pharmaceutical agent comprising amino acids, peptides, proteins and/or fractions and fragments thereof and the use of same in the prophylaxis and treatment of immune system deficiency in humans and animals” (priority 2004, published 2006)", "key": {"T-lymphocytes": {"test_system": "T-lymphocytes", "assay": "E-rosette test in immunosuppressed guinea pigs", "format": "in vivo, guinea pig", "excerpt": "Guinea pig's T-lymphocytes bind rabbits erythrocytes on their surface, this ability is used to observe the dynamics of changes in the number of T-lymphocytes. The number of the human T-lymphocytes is one of the parameters of evaluation of cellular immunity in the clinical immunology. […] The first step was to determine the number of T-lymphocytes by using the E-rosette assay in the 8 Guinea pigs in the weight range 260-310 g. The second step was to decrease the number of T-lymphocytes. This was done using the immunosuppressant Azathioprin. The application of this is per os for 7 of the guinea pigs. The 8th guinea pig will be used as a control without application of the immunosuppressant. The second determination of the T-lymphocytes followed 7 days after the application of the immunosuppressant. […] One of the suppressed guinea pigs was used as a control suppressed animal.\nThe level of E-rosettes was determined on the first day from the blood of 12 experimental guinea pigs. On the second day, 8 animals (group A) were treated i.p. with oxoplatin as an anti-tumor agent and 3 animals (group B) were treated with double the dose of oxoplatin. The final guinea pig was used as a control. The level of E-rosettes was determined 5 days later.\nThe level of the E-rosettes in 3 guinea pigs with low values of E-rosettes was determined again at day 35.\nThe level of E-rosettes in 9 experimental guinea pigs was determined on the 1st day. On the second day 8 animals were injected with Campto and one was without application. The level of E-rosettes in all guinea pigs was determined on the 7th day of experiment. […] On day 22 of the experiment one guinea pig had E-rosette production determined. The level of E-rosettes was then determined again in all animals on day 29.\nThe level of E-rosettes in 9 experimental guinea pigs was determined on the first day. On the second day, 8 guinea pigs were injected with Taxol. The level of E-rosettes was determined again on the 7th day of experimentation. […] The level of E-rosettes in all guinea pigs was determined on the 29th day.\nThe level of the E-rosettes in 10 experimental guinea pigs was determined on the first day. On the second day, 9 guinea pigs were injected with Eloxatin. The level of E-rosettes were determined on the 7th day of experimentation. […] The final level of E-rosettes was then determined on the 30th day of experimentation."}, "human PBMC": {"test_system": "human PBMC", "assay": "Lymphocyte proliferation in vitro (Stimulation index, Thymidine uptake)", "format": "cell-based", "settings": "PHA positive control", "protocol": "T-lymphocyte activation can be assessed directly by: • a) De novo expression or increase of activation markers such as CD69 on T lymphocytes (CD69+/CD4+ cells) after 4 hours activation • b) Measuring blastogenesis and/or proliferation of cells to phytomitogens (such as Phytohemagglutinin, PHA), common antigens or other substances evaluated 72 hours after activation • c) Antigen-induced release of cytokines (in this case the preparation-induced intra-cellular expression of IFNg in CD4+ T lymphocytes) Methods\nHeparinized venous blood from 5 healthy volunteers (women, aged 35-52 years) has been used for the performance of the following investigations:\nIn vitro proliferation of PBMC from 5 healthy individuals is presented as Stimulation index in Table 2. The PHA-induced proliferation, used here as a positive control, verified good culturing conditions, as it is shown mean proliferation index 184.5±142.8 at 72 hours. As it is expected, at 6 day SI of PHA stimulation is dropping (it is a mitogen), but the cell cultures were intact.\nThat is why we tested it's stimulation activity at 3 days and 6 days activation period."}, "CD4+ T lymphocytes": {"test_system": "CD4+ T lymphocytes", "assay": "Intracellular staining for IFNg and CD69 expression on CD4+ lymphocytes in whole blood", "format": "cell-based, human", "settings": "for % CD69+ cells / % CD69+/IFNg+ cells: CD4+ lymphocytes, 0.5 ml blood + 50 μg preparation or 10 μg PHA", "protocol": "Briefly, whole peripheral blood was collected into sodium heparin. […] Addition of 10 μl Brefeldin A (Sigma, 10 μg/ml) to all tubes. Incubation for new 4 hours at 37° C., 5% CO2. Brefeldin A is an agent which arrest produced cytokine intracellular. Surface and intracellular staining for T-lymphocytes was performed according to the manufacturer rules with monoclonal antibodies against CD3, CD4, CD69 and IFNg from FastImmune CD4 Intracellular Cytokine Detection kit (BD). Red blood cells were lysed with FACS Lysing solution for 10 min. at room temperature. Permeabilization of lymphocytes was achieved using FACS Permeabilizing solution (BD) for 10 min. The activation and intracellular cytokine expression was evaluated by the staining with CD4/CD69/IGNg monoclonal antibodies"}}, "note": "Several values for one entry are separate records, joined by “and”; a condition that tells them apart may be missing. Identical values can stand only once."}
{"compound": "CCc1c2c(nc3ccc(OC(=O)N4CCC(N5CCCCC5)CC4)cc13)-c1cc3c(c(=O)n1C2)COC(=O)[C@]3(O)CC", "note": "[Campto]", "values": [{"measurement": "decrease of production of E-rosettes after application of Campto", "setting": "T-lymphocytes; Experiment 2, injected day 2, determined 7th day", "result": 22.7, "unit": "%"}]}
{"compound": "N.N.[Cl-].[Cl-].[OH-].[OH-].[Pt+4]", "note": "[oxoplatin]", "values": [{"measurement": "decrease of production of E-rosettes after application of oxoplatin", "setting": "T-lymphocytes; Experiment 1, i.p., determined 5 days later", "result": 27.4, "unit": "%"}]}
{"compound": "Phytohemagglutinin [PHA]", "values": [{"measurement": "Stimulation index (PBMC proliferation)", "setting": "human PBMC; Mean of donors, 3 days (72 hours)", "result": "184.5±142.8"}, {"measurement": "Stimulation index (PBMC proliferation)", "setting": "human PBMC; Mean of donors, 3 days (72 hours), listed as PHA(+)", "result": 184.33}, {"measurement": "Stimulation index (PBMC proliferation)", "setting": "human PBMC; Mean of donors, 6 days", "result": 51.97}, {"measurement": "Stimulation index (PBMC proliferation)", "setting": "human PBMC; donor four, 3 days", "result": 77.3}, {"measurement": "Stimulation index (PBMC proliferation)", "setting": "human PBMC; donor four, 6 days", "result": 61.09}, {"measurement": "Stimulation index (PBMC proliferation)", "setting": "human PBMC; donor one, 3 days", "result": 417}, {"measurement": "Stimulation index (PBMC proliferation)", "setting": "human PBMC; donor one, 6 days", "result": 33}, {"measurement": "Stimulation index (PBMC proliferation)", "setting": "human PBMC; donor six, 3 days", "result": 114.65}, {"measurement": "Stimulation index (PBMC proliferation)", "setting": "human PBMC; donor six, 6 days", "result": 25.11}, {"measurement": "Stimulation index (PBMC proliferation)", "setting": "human PBMC; donor three, 3 days", "result": 87.38}, {"measurement": "Stimulation index (PBMC proliferation)", "setting": "human PBMC; donor three, 6 days", "result": 119.9}, {"measurement": "Stimulation index (PBMC proliferation)", "setting": "human PBMC; donor two, 3 days", "result": 225.3}, {"measurement": "Stimulation index (PBMC proliferation)", "setting": "human PBMC; donor two, 6 days", "result": 20.74}, {"measurement": "% CD69+ cells", "setting": "CD4+ T lymphocytes; Mean of 6 donors", "result": 83.54, "unit": "%"}, {"measurement": "% CD69+/IFNg+ cells", "setting": "CD4+ T lymphocytes; Mean of 6 donors", "result": "4.97±5.75% and 4.97%"}, {"measurement": "PHA induced % CD69+ cells", "setting": "CD4+ T lymphocytes; after 4 hours stimulation, healthy individuals", "result": "over 80%"}, {"measurement": "% CD69+ cells", "setting": "CD4+ T lymphocytes; donor five", "result": 78.46, "unit": "%"}, {"measurement": "% CD69+/IFNg+ cells", "setting": "CD4+ T lymphocytes; donor five", "result": 2.45, "unit": "%"}, {"measurement": "% CD69+ cells", "setting": "CD4+ T lymphocytes; donor four", "result": 87.87, "unit": "%"}, {"measurement": "% CD69+/IFNg+ cells", "setting": "CD4+ T lymphocytes; donor four", "result": 2.87, "unit": "%"}, {"measurement": "% CD69+ cells", "setting": "CD4+ T lymphocytes; donor one", "result": 89.58, "unit": "%"}, {"measurement": "% CD69+/IFNg+ cells", "setting": "CD4+ T lymphocytes; donor one", "result": 0.49, "unit": "%"}, {"measurement": "% CD69+ cells", "setting": "CD4+ T lymphocytes; donor six", "result": 90.03, "unit": "%"}, {"measurement": "% CD69+/IFNg+ cells", "setting": "CD4+ T lymphocytes; donor six", "result": 16.42, "unit": "%"}, {"measurement": "% CD69+ cells", "setting": "CD4+ T lymphocytes; donor three", "result": 86.39, "unit": "%"}, {"measurement": "% CD69+/IFNg+ cells", "setting": "CD4+ T lymphocytes; donor three", "result": 4.39, "unit": "%"}, {"measurement": "% CD69+ cells", "setting": "CD4+ T lymphocytes; donor two", "result": 68.91, "unit": "%"}, {"measurement": "% CD69+/IFNg+ cells", "setting": "CD4+ T lymphocytes; donor two", "result": 3.18, "unit": "%"}]}
{"compound": "CC(=O)O[C@H]1C(=O)[C@@]2(C)[C@H]([C@H](OC(=O)c3ccccc3)[C@]3(O)C[C@H](OC(=O)[C@H](O)[C@@H](NC(=O)c4ccccc4)c4ccccc4)C(C)=C1C3(C)C)[C@]1(OC(C)=O)CO[C@@H]1C[C@@H]2O", "note": "[Taxol]", "values": [{"measurement": "decrease of production of E-rosettes after application of Taxol", "setting": "T-lymphocytes; Experiment 3, injected day 2, determined 7th day", "result": 16, "unit": "%"}]}
{"compound": "O=C1[O][Pt]2([NH][C@@H]3CCCC[C@H]3[NH]2)[O]C1=O", "note": "[Eloxatin]", "values": [{"measurement": "decrease of formation of E-rosettes after application of Eloxatin", "setting": "T-lymphocytes; Experiment 4, injected day 2, determined 7th day", "result": 22, "unit": "%"}]}
